Measurements: PubChem BioAssay (NCI)
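How tested: cells in 96-well plates exposed to compound for 48 hours at five concentrations. TGI: concentration producing complete growth inhibition.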

Tests used:
Assay in all cases: NCI tumour cell line growth inhibition, 48 h
[1] = test system: COLO 205 colon
[2] = test system: A549 NSCLC
[3] = test system: TK-10 renal
[4] = test system: SK-MEL-28 melanoma
[5] = test system: HCT-15 colon
[6] = test system: SN12C renal
[7] = test system: SW-620 colon
[8] = test system: KM12 colon
[9] = test system: KM20L2 colon
[10] = test system: 786-0 renal
[11] = test system: RXF 393 renal
[12] = test system: K-562 leukemia
[13] = test system: HT29 colon
[14] = test system: SK-MEL-5 melanoma
[15] = test system: SK-MEL-2 melanoma
[16] = test system: MALME-3M melanoma
[17] = test system: IGROV1 ovarian
[18] = test system: SK-OV-3 ovarian
[19] = test system: HL-60(TB) leukemia
[20] = test system: SF-539 CNS
[21] = test system: MOLT-4 leukemia
[22] = test system: NCI-H522 lung
[23] = test system: EKVX NSCLC
[24] = test system: XF 498 CNS
[25] = test system: M19-MEL melanoma
[26] = test system: DMS 273 small cell lung
[27] = test system: SF-295 CNS
[28] = test system: OVCAR-5 ovarian
[29] = test system: NCI-H23 lung
[30] = test system: HOP-62 NSCLC
[31] = test system: NCI-H460 lung
[32] = test system: U251 CNS
[33] = test system: DLD-1 colon
[34] = test system: LOX IMVI melanoma
[35] = test system: DMS 114 small cell lung
[36] = test system: UO-31 renal
[37] = test system: SF-268 CNS
[38] = test system: LXFL 529 NSCLC
[39] = test system: HCT-116 colon
[40] = test system: NCI-H226 lung
[41] = test system: HOP-92 NSCLC
[42] = test system: A498 renal
[43] = test system: OVCAR-4 ovarian
[44] = test system: HOP-18 NSCLC
[45] = test system: UACC-257 melanoma
[46] = test system: RPMI-8226 leukemia
[47] = test system: HCC-2998 colon
[48] = test system: UACC-62 melanoma
[49] = test system: SNB-78 CNS
[50] = test system: SNB-19 CNS
[51] = test system: OVCAR-3 ovarian
[52] = test system: M14 melanoma
[53] = test system: ACHN renal
[54] = test system: CCRF-CEM leukemia
[55] = test system: SNB-75 CNS
[56] = test system: OVCAR-8 ovarian
[57] = test system: CAKI-1 renal

`CC(=O)Nc1ccc(C2C(C(=O)Nc3ccccc3)=C(C)NC(C)=C2C(=O)Nc2ccccc2)cc1` gave a TGI [1] greater than 100 µM, a TGI [2] greater than 100 µM and a TGI [3] greater than 100 µM. For the same compound, the TGI [4] was greater than 100 µM, the TGI [5] was greater than 100 µM and the TGI [6] was greater than 100 µM. For the same compound, the TGI [7] was greater than 100 µM, the TGI [8] was greater than 100 µM and the TGI [9] was greater than 100 µM. For the same compound, the TGI [10] was greater than 100 µM, the TGI [11] was greater than 100 µM and the TGI [12] was greater than 100 µM. It also gave a TGI [13] greater than 100 µM, a TGI [14] greater than 100 µM and a TGI [15] greater than 100 µM. The TGI [16] was greater than 100 µM, the TGI [17] was greater than 100 µM and the TGI [18] was greater than 100 µM. The TGI [19] was greater than 100 µM, the TGI [20] was greater than 100 µM and the TGI [21] was greater than 100 µM. The TGI [22] was greater than 100 µM, the TGI [23] was greater than 100 µM and the TGI [24] was greater than 100 µM. The TGI [25] was greater than 100 µM, the TGI [26] was greater than 100 µM and the TGI [27] was greater than 100 µM. It also gave a TGI [28] greater than 100 µM, a TGI [29] greater than 100 µM and a TGI [30] greater than 100 µM. For the same compound, the TGI [31] was greater than 100 µM, the TGI [32] was greater than 100 µM and the TGI [33] was greater than 100 µM. The TGI [34] was greater than 100 µM, the TGI [35] was greater than 82.5 µM and the TGI [36] was greater than 100 µM. For the same compound, the TGI [37] was greater than 100 µM, the TGI [38] was greater than 100 µM and the TGI [39] was greater than 100 µM. It also gave a TGI [40] greater than 100 µM, a TGI [41] greater than 100 µM and a TGI [42] greater than 100 µM. For the same compound, the TGI [43] was greater than 100 µM, the TGI [44] was greater than 100 µM and the TGI [45] was greater than 100 µM. The TGI [46] was greater than 100 µM, the TGI [47] was greater than 100 µM and the TGI [48] was greater than 100 µM. For the same compound, the TGI [49] was greater than 100 µM, the TGI [50] was greater than 100 µM and the TGI [51] was greater than 100 µM. For the same compound, the TGI [52] was greater than 100 µM, the TGI [53] was greater than 100 µM and the TGI [54] was greater than 100 µM. For the same compound, the TGI [55] was greater than 100 µM, the TGI [56] was greater than 100 µM and the TGI [57] was greater than 100 µM.
